Molecules are shown by their SMILES.

This passage reports deltaT and ΔTm results from ChEMBL document CHEMBL5104107, “Toward the Design of Ligands Selective for the C-Terminal Domain of TEADs” (J Med Chem, 2022).

Assay [1] addresses Transcriptional enhancer factor TEF-1 (Homo sapiens) (UniProt P28347). The assay is described as follows: Binding affinity to recombinant TEAD1 (unknown origin) assessed as increase in thermal stability by thermal shift assay.
The target in assay [2] is Transcriptional enhancer factor TEF-4 (Homo sapiens) (UniProt Q15562). The assay is described as follows: Binding affinity to recombinant TEAD2 (unknown origin) assessed as increase in thermal stability by thermal shift assay.
For assay [3] the target is unchanged. The assay is described as follows: Thermal stabilization of C-terminal human TEAD2 (217 to 447 residues) assessed as change in melting temperature by thermal shift assay.

Transcriptional enhancer factor TEF-4 (Homo sapiens), sequence (Q15562 whole entry, the tested form may be a part): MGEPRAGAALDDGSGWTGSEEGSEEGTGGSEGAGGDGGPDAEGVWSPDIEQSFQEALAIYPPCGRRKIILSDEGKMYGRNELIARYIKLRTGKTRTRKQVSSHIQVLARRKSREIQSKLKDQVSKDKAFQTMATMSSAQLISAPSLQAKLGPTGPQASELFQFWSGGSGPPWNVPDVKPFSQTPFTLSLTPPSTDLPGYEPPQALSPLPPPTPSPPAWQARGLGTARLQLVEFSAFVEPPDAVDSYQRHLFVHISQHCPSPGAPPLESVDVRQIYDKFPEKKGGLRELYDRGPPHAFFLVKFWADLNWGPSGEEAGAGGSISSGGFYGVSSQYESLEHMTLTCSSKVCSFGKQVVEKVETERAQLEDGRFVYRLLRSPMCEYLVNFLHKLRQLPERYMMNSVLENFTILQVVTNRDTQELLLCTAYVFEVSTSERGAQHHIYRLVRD
Transcriptional enhancer factor TEF-1 (Homo sapiens), sequence (P28347 whole entry): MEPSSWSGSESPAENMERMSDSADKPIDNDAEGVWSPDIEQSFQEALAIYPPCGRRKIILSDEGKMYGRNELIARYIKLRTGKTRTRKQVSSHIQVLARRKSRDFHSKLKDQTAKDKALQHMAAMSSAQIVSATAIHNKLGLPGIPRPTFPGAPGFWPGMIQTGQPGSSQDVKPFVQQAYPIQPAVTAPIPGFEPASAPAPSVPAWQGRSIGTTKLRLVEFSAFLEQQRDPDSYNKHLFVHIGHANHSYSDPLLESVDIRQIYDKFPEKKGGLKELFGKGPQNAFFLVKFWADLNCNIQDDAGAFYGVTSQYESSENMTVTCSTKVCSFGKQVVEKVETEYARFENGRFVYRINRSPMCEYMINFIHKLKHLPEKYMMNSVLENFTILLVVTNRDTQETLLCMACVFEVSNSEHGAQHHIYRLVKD

Turning to `CNS(=O)(=O)c1ccc(Nc2ccc(C(F)(F)F)cc2)c(-c2cn(C)cn2)c1`, the deltaT worked out at 8.3 °C in assay [1] and 4.2 °C in assay [2]. Take `Nc1cccc(-c2cc[nH]n2)c1`: the ΔTm in assay [3] stood at 0.95 °C.
